From US20070003987A1, “Screening method for substance binding to merozoite surface protein-1/42” (priority 2003, published 2007)

What was measured:
P. falciparum (FCB-1) = assay: short-term in vitro invasion assay (newly invaded ring stages counted by microscopy); assay type: cell-based, Plasmodium falciparum
Description: Asexual blood stages of P. falciparum (FCB-1) were maintained at 37° C. in RPMI 1640/Albumax medium (Gibco) supplemented with 2 mM L-glutamine as previously described (Blackman, 1994 Methods Cell Biol. 45, 213-220). Cultures were gassed with 7% CO2, 5% O2 and 88% N2 and maintained by routine passage in fresh human erythrocytes. Parasites were synchronised by Percoll and sorbitol treatment (Holder & Freeman, 1982 J. Exp. Med. 156, 1528-1538); schizonts were purified by centrifugation over Percoll and then returned to culture in the presence of fresh erythrocytes. After 4 h, during which time released merozoites invaded erythrocytes, the cells were treated with 5% sorbitol for 10 min to lyse the residual schizonts, before returning the parasites to culture.
Compounds were tested for their ability to inhibit invasion in vitro, using two approaches: a short-term assay in which the number of newly invaded erythrocytes was counted using microscopy, and a growth assay measuring uptake of [^3H] hypoxanthine. In the short term-assay (described previously by Blackman et al, 1990 J. Exp. Med. 172, 379-382), compounds were incubated with purified P. falciparum schizonts at ^˜2% parasitaemia and ^˜2% haematocrit in triplicate cultures. After between 6 and 24 h, blood smears were stained with Giemsa's reagent and examined by microscopy. […]

P. vivax MSP133 = target: T1, P. vivax MSP133 (Plasmodium vivax, UniProt Q02569, A1444G/T1362K/T1451N); assay: isothermal titration calorimetry; assay type: binding
T1 sequence (Q02569 1325-1618 T1362K/A1444G/T1451N): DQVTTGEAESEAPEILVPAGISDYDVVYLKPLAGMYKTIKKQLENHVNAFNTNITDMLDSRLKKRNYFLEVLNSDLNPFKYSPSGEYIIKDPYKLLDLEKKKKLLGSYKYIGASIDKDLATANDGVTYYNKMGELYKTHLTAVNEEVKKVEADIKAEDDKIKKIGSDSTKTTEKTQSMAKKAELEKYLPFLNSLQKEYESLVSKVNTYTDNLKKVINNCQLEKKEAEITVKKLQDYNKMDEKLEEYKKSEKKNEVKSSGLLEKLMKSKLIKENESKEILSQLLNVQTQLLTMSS
Description: P. vivax MSP133 was expressed using the P. vivax MSP142 clone, above, as a template for PCR, followed by ligation of the product into vector pET30Xa/LIC. The sequence runs from Asp 1325 to Ser 1618 (Accession number A39401) following the N-terminal purification tag. The vector was used to transform BL21(DE3)pLysS cells. For expression, a culture of the transformed cells was induced at an OD600 of 0.6-0.8 at 37° C. with 1 mM IPTG for 3 h. The cells were harvested by centrifugation and the cell pellet lysed using the Bugbuster protein extraction reagent (Novagen). The cell lysate was cleared by centrifugation and the supernatant loaded directly onto a Ni-NTA column. The column was washed with 10 volumes of 50 mM NaH2PO4, 300 mM NaCl, 10 mM imidazole, pH 8.0, then with 6 column volumes of the same buffer containing 30 mM imidazole, and finally eluted with 3 column volumes of the buffer with 250 mM imidazole. The eluted protein was then loaded directly onto a Superdex 200 (26/600) column (Amersham) equilibrated in 20 mM Tris-HCl, 250 mM NaCl, pH 8.0 and purified by gel filtration. The fractions containing MSP-133 were pooled and dialysed extensively with PBS.
In addition to the fluorimetry, isothermal titration calorimetry (ITC) was performed using a Microcal omega VP-ITC (MicroCal Inc., Northampton, Mass.). The proteins were dialyzed extensively against the ITC buffer (phosphate buffered saline, pH 7.4). All experiments were performed at 25° C. The cell, 1.425 ml, contained 30 μM MSP142 or MSP133 and these were titrated by injection of a total of 290 μl of 600 μM suramin. The heat of dilution of suramin into buffer was determined in control experiments. The data were fitted by least-squares methods using the evaluation software, Microcal Origin version 5.0 provided by the manufacturer. Each experiment was performed twice.

MSP142 = MSP142 (Plasmodium falciparum, UniProt Q8I0U8); assay: P. falciparum MSP1 secondary processing assay (merozoites, Western blot); assay type: biochemical; parameters: Merozoites were purified as described previously; endogenous in cells; host or cells: purified P. falciparum merozoites released from mature schizonts
Description: Merozoites were purified as described previously (Blackman 1994 Methods Cell Biol. 45, 213-220) after release from mature schizonts into growth medium supplemented with 2 mM EGTA. Merozoites were harvested by centrifugation, followed by sequential passage through pre-wetted filters of 3 and 1.2 μm pore size. Merozoites were washed in Ca^2+- and Mg^2+-free PBS in the presence of protease inhibitors (leupeptin, antipain and aprotinin at 10 μg ml^−1). The merozoites were then washed and resuspended in 50 mM Tris-HCl pH 7.2, 5 mM CaCl2, 1 mM MgCl2, plus leupeptin, antipain and aprotinin at 10 μg ml^−1 (processing buffer), and divided into 18 μl aliquots. Two microlitres of either diluted compound or reaction buffer were added and the samples incubated for 1 h at 37° C. Control assays included those in which processing was prevented by immediate addition of either SDS, 1 mM PMSF or 5 mM EGTA; and those in the absence of compound or in the presence of 0.2 mM TLCK (tosyl-L-lysyl chloromethyl ketone). After 1 h the reaction was stopped, and MSP1 processing was analysed using a Western blot-based assay (Blackman 1994 Methods Cell Biol. 45, 213-220). The blots were probed with a rabbit anti-MSP133/MSP142 antibody and the bands corresponding to MSP142 and MSP133 polypeptides were visualised by enhanced chemiluminescence.
Purified merozoites were incubated in the presence or absence of suramin or NTS and polypeptides subjected to SDS-PAGE and Western blotting.

Compound: Cc1ccc(C(=O)Nc2ccc(S(=O)(=O)O)c3cc(S(=O)(=O)O)cc(S(=O)(=O)O)c23)cc1NC(=O)c1cccc(NC(=O)Nc2cccc(C(=O)Nc3cc(C(=O)Nc4ccc(S(=O)(=O)O)c5cc(S(=O)(=O)O)cc(S(=O)(=O)O)c45)ccc3C)c2)c1 [suramin]
- inhibition of merozoite invasion of erythrocytes (microscopy, Giemsa) (P. falciparum (FCB-1)): inhibited merozoite invasion of erythrocytes
- inhibition of merozoite release from schizonts (microscopy) (P. falciparum (FCB-1)): did not inhibit merozoite release from schizonts
- Kd (P. vivax MSP133): 1.5 ± 0.5 µM
- binding to MSP133 weaker than to MSP142 (P. vivax MSP133; ITC): 5 fold
- AH value (P. vivax MSP133; ITC, 25° C.): 12 ± 1 kcal/mol
- inhibition of MSP142 secondary processing (MSP142; 200 μM, 1 h at 37° C.): absence of MSP133
- dose dependence of inhibition of MSP142 processing (FIG. 3B) (MSP142; 1.25-200 μM suramin): dose-dependent
